Measured values published in ChEMBL document CHEMBL1149398, “Pyrrolizidine esters and amides as 5-HT4 receptor agonists and antagonists” (J Med Chem, 2006).

What was measured:
[1] = Binding affinity to 5HT1 receptor
[2] = target: 5-hydroxytryptamine receptor 4 (Cavia porcellus, UniProt O70528); assay: Displacement of [3H]GR-113808 from 5HT4 receptor in guinea pig striatum
[3] = target: Serotonin 2 (5-HT2) receptor (Homo sapiens, UniProt P41595+P28223+P28335); assay: Binding affinity to 5HT2 receptor; format: protein assay
[4] = target: Beta-2 adrenergic receptor (Homo sapiens, UniProt P07550); assay: Binding affinity to adrenergic beta-2 receptor
Sequence of Beta-2 adrenergic receptor (P07550 whole entry): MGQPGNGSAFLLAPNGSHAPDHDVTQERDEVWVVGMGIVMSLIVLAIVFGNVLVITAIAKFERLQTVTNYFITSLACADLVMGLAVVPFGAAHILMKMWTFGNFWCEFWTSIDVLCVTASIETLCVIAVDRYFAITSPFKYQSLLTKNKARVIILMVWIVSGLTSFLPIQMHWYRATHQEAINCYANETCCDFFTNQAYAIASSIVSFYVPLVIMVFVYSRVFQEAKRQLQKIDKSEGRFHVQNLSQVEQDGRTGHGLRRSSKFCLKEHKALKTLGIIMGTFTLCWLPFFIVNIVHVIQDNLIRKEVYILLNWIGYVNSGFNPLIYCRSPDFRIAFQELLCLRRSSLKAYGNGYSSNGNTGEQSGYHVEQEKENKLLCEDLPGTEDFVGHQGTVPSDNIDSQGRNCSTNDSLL

D(2) dopamine receptor = D(2) dopamine receptor (Homo sapiens, UniProt P14416); assay: Binding affinity to dopamine receptor D2
Sequence of D(2) dopamine receptor (P14416 whole entry): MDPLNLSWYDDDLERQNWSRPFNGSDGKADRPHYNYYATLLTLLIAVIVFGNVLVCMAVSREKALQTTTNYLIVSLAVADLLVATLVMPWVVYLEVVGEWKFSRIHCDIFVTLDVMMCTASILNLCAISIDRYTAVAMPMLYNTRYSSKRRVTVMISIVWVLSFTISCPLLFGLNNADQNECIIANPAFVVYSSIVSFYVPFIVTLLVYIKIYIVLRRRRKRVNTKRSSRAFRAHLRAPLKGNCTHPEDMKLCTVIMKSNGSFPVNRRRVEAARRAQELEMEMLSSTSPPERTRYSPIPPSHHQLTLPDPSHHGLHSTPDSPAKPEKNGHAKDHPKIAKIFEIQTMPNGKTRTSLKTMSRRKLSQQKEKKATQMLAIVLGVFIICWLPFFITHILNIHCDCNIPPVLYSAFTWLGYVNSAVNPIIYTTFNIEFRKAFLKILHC

[5] = target: T1, Adrenergic receptor alpha-2 (Homo sapiens, UniProt P08913+P18825+P18089); assay: Binding affinity to adrenergic alpha-2 receptor; format: protein assay
T1 sequence (P08913 whole entry): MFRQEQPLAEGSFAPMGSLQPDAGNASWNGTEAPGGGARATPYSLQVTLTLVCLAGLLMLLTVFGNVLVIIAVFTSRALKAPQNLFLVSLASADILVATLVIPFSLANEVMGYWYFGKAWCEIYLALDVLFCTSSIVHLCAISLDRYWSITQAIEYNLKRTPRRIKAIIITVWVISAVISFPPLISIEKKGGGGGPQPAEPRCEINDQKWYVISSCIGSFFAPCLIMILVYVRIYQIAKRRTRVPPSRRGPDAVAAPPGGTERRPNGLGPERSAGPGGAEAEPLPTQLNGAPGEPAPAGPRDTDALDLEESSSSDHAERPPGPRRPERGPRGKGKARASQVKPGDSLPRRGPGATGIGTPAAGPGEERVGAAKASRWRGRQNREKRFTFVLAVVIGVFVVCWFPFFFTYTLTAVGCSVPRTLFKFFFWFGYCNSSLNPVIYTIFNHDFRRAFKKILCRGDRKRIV
T1 sequence (P18825 whole entry): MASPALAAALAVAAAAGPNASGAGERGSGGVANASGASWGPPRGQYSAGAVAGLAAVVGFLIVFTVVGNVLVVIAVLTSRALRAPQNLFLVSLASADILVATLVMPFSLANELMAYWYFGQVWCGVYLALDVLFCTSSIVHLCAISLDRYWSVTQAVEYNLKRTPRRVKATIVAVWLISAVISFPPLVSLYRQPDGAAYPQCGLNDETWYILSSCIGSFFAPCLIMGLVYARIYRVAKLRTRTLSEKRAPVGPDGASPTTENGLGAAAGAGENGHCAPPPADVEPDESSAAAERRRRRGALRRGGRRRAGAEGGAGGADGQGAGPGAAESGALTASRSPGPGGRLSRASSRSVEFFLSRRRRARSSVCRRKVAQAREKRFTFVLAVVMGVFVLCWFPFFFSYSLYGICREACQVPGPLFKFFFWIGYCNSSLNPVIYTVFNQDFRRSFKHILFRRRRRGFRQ
T1 sequence (P18089 whole entry): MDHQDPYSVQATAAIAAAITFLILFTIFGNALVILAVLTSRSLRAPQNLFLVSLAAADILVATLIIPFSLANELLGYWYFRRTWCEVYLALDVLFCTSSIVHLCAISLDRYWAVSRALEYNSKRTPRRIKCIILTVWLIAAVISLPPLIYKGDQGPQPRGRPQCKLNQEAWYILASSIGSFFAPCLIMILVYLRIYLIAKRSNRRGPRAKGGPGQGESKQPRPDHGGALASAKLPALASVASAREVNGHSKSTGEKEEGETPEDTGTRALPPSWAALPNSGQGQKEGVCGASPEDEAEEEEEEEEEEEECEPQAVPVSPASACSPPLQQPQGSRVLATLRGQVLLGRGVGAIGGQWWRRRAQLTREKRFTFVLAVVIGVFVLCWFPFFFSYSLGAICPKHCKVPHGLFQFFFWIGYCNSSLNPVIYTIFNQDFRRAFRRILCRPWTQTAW

[6] = target: Beta-1 adrenergic receptor (Homo sapiens, UniProt P08588); assay: Binding affinity to adrenergic beta-1 receptor
Sequence of Beta-1 adrenergic receptor (P08588 whole entry): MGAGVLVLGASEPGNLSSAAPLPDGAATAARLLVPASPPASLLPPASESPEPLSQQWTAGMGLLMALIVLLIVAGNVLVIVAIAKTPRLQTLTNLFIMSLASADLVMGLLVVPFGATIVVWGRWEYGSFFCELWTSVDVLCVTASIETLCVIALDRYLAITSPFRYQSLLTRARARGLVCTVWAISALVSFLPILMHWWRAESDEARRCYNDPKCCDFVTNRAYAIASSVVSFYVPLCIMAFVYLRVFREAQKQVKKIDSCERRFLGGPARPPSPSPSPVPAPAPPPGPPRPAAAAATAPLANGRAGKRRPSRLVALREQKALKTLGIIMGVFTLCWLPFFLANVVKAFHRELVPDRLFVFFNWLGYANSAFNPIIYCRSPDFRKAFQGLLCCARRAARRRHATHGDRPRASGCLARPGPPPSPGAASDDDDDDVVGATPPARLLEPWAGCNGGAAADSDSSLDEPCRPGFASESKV

D(1A) dopamine receptor = D(1A) dopamine receptor (Homo sapiens, UniProt P21728); assay: Binding affinity to dopamine receptor D1
Sequence of D(1A) dopamine receptor (P21728 whole entry): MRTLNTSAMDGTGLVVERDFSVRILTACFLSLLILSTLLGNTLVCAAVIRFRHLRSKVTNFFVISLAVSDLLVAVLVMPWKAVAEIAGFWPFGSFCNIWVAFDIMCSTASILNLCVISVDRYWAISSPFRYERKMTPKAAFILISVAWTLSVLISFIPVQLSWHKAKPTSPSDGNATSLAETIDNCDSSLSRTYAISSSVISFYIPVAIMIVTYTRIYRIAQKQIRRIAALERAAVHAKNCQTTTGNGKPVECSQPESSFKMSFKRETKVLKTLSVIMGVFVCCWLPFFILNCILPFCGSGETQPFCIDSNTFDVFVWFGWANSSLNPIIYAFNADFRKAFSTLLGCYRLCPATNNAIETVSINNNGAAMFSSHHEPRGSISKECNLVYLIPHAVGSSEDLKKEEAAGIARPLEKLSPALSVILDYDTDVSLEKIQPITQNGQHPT

Sequence of 5-hydroxytryptamine receptor 4 (O70528 whole entry): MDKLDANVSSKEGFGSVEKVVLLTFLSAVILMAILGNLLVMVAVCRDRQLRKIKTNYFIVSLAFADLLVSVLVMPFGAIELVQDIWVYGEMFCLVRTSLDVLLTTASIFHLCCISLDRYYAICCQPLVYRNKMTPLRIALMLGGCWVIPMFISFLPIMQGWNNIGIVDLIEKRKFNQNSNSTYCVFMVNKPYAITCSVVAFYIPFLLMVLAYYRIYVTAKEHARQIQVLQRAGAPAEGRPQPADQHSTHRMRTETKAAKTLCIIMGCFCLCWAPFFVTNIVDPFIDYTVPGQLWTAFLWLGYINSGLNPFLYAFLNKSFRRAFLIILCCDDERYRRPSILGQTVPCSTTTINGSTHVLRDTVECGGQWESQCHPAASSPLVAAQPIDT

| SMILES | IC50 [1] [µM] | Ki [2] [µM] | IC50 [3] [µM] | IC50 [4] [µM] | IC50 (D(2) dopamine receptor) [µM] | IC50 [5] [µM] | IC50 [6] [µM] | IC50 (D(1A) dopamine receptor) [µM] |
| --- | --- | --- | --- | --- | --- | --- | --- | --- |
| Cn1nc(C(=O)OC[C@@H]2CCN3CCC[C@@H]23)c2ccccc21 (single isomer, unassigned) | > 10 | 0.0004 | > 10 | > 10 | > 10 | > 10 | > 10 | > 10 |
| COc1cc(N)c(Cl)cc1C(=O)NC[C@@H]1CCN2CCC[C@@H]12 | > 10 | 0.0052 | > 10 | > 10 | > 10 | > 10 | > 10 | > 10 |
| COc1cc(N)c(Cl)cc1C(=O)N[C@@H]1C2CC3CN(C2)CC31 (stereo partly drawn) | > 10 | 0.029 | > 10 | > 10 | > 10 | > 10 | > 10 | > 10 |
| O=C(NC[C@@H]1CCN2CCC[C@@H]12)c1cc(Cl)cn2ccnc12 | > 10 | 0.0014 | > 10 | > 10 | > 10 | > 10 | > 10 | > 10 |

Other lines, results leading:

| IC50 [1] [µM] | Ki [2] [µM] | IC50 [3] [µM] | IC50 [4] [µM] | IC50 (D(2) dopamine receptor) [µM] | IC50 [5] [µM] | IC50 [6] [µM] | IC50 (D(1A) dopamine receptor) [µM] | SMILES |
| --- | --- | --- | --- | --- | --- | --- | --- | --- |
| > 10 | 0.000183 | > 10 | > 10 | > 10 | > 10 | > 10 | > 10 | O=C(OC[C@@H]1CCN2CCC[C@@H]12)c1c[nH]c2ccccc12 |
| > 10 | 0.0008 | > 10 | > 10 | > 10 | > 10 | > 10 | > 10 | O=C(OC[C@@H]1CCN2CCC[C@@H]12)c1[nH]nc2ccccc12 (single isomer, unassigned) |
